# Laboratory results from patent publication US20210290732A1, “GLP-1R and GCGR Agonists, Formulations, and Methods of Use” (Spitfire Pharma LLC, priority 2020, published 2021).
# Like-named read-outs stand apart in the source and are kept apart here.
# Columns and labels:
# human GLP-1R = biological target: T1, human GLP-1R (Homo sapiens, UniProt P43220); test: cAMP receptor activation assay, human GLP-1R cloned into CHO cells (DiscoverX LeadHunter / cAMP Hunter); assay type: cell-based; details: for Selectivity Ratio GLP-1R vs GCGR: SR = GCGR EC50/GLP-1 EC50, 0.1% BSA
# T1 construct: host or cells: CHO-K1
# T1 sequence (P43220 24-463): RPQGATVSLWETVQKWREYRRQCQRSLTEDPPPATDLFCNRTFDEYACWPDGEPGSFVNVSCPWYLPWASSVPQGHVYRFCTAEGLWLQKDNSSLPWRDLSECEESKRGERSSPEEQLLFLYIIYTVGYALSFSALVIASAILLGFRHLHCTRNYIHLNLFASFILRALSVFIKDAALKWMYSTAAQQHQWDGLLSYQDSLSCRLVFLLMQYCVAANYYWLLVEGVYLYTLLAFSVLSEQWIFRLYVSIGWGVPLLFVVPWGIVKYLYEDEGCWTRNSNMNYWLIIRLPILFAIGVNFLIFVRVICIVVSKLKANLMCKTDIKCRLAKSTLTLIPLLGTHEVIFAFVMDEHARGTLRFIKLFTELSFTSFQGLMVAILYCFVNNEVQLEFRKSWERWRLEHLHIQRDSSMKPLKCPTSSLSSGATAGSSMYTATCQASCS
# Procedure: (§1) Cellular assays were carried out using standard cellular assays (DiscoveRx, LeadHunter assays) using readout of cAMP stimulation or arrestin activation. Compounds were weighed precisely in an amount of approximately 1 mg and shipped to DiscoverX (Fremont, Calif.) for dilution and assay. […] Assays were carried out in the presence of 0.1% ovalbumin. […] Use of 0.1% ovalbumin can avoid this problem.
# (§2) Assays were carried out in the presence of 0.1% ovalbumin. […] Use of 0.1% ovalbumin can avoid this problem.
# (§3) Receptor activation assays were performed at DiscoverX laboratories (Fremont, Calif.) using human GLP-1R and GCGR cloned into Chinese Hamster Ovary (CHO) cells (LeadHunter Discovery Services; assay product 86-0007D cAMP Hunter™ using huGLP1R and huGCGR; whole cell cAMP accumulation assays; cell lines used were cAMP Hunter™ CHO-K1 GCGR Gs Cell Line, catalog 95-0042C2 and cAMP Hunter™ CHO-K1 GLP1 Gs Cell Line, catalog 95-0062C2; readout of accumulated cAMP was made using readout HitHunter cAMP XS+ assay). Cell lines are maintained at DiscoverX and were incubated with test agents for 30 m at 37° C. for accumulation of cAMP. […] Results described herein are from single assays performed on cells in duplicate and data were replotted in Prism 5 to provide pEC50 (SE) data.
# (§4) In vitro data are presented as pEC50 (SE) determined in Prism 5 by nonlinear regression analysis of the raw fluorescence data normalized by corresponding response to internal standards (see Supporting Information for data plots).
# GCGR = GCGR (Homo sapiens, UniProt P47871); test: cAMP receptor activation assay, human GCGR cloned into CHO cells (DiscoverX LeadHunter / cAMP Hunter); assay type: cell-based; set-up: host or cells: CHO-K1
# GCGR, sequence (P47871 26-477): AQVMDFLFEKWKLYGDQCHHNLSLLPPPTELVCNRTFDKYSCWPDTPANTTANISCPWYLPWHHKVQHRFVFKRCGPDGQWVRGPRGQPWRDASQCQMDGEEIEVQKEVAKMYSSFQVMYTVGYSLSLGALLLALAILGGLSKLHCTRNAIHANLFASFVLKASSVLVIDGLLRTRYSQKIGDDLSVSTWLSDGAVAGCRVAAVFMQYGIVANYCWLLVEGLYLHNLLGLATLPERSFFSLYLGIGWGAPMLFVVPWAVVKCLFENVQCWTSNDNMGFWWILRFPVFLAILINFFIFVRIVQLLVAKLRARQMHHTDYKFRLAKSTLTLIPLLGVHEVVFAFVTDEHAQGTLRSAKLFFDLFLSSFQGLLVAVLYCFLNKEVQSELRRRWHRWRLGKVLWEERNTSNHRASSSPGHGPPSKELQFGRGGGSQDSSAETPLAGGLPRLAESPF
# Procedure: as §1, §2, §3, §4
# [1] = cAMP, CHO cells, 0.1% BSA containing buffers, read-out: pEC50 (SE) huGCGR (converted)
# [2] = cAMP, CHO cells, 0.1% OVA containing buffers, read-out: EC50 hGCGR
# [3] = cAMP, CHO cells, 0.1% BSA containing buffers, read-out: pEC50 (SE) hu GLP-1 (converted)
molecule,measurement,setting,value
CCCCCCCCCCCCO[C@@H]1O[C@H](C(=O)O)[C@@H](O[C@H]2O[C@H](C(=O)NCCCC[C@H](NC(=O)[C@@H](NC(=O)[C@H](Cc3ccccc3)NC(=O)[C@H](CCC(=O)O)NC(=O)[C@@H]3CCCCNC(=O)CC[C@H](NC(=O)[C@H](CC(=O)O)NC(=O)[C@H](CC(C)C)NC(=O)[C@H](Cc4ccc(O)cc4)NC(=O)[C@H](CCCCN)NC(=O)[C@H](CO)NC(=O)[C@H](Cc4ccc(O)cc4)NC(=O)[C@H](CC(=O)O)NC(=O)[C@H](CO)NC(=O)[C@@H](NC(=O)[C@H](Cc4ccccc4)NC(=O)[C@@H](NC(=O)CNC(=O)[C@H](CCC(N)=O)NC(=O)C(C)(C)NC(=O)[C@@H](N)Cc4c[nH]cn4)[C@@H](C)O)[C@@H](C)O)C(=O)N[C@@H](CCC(N)=O)C(=O)N[C@@H](C)C(=O)N[C@@H](C)C(=O)N3)[C@@H](C)CC)C(=O)N[C@@H](Cc3c[nH]c4ccccc34)C(=O)N[C@@H](CC(C)C)C(=O)N[C@@H](CC(C)C)C(=O)N[C@@H](CCC(N)=O)C(=O)N[C@H](C(N)=O)[C@@H](C)O)[C@@H](O)[C@H](O)[C@H]2O)[C@H](O)[C@H]1O [analogue 7],EC50,human GLP-1R,50.1 pM
same,EC50,GCGR; [1],14.8 pM
CC[C@H](C)[C@H](NC(=O)[C@H](Cc1ccccc1)NC(=O)[C@H](CCC(=O)O)NC(=O)[C@@H]1CCCCNC(=O)CC[C@H](NC(=O)[C@H](CC(=O)O)NC(=O)[C@H](CC(C)C)NC(=O)[C@H](Cc2ccc(O)cc2)NC(=O)[C@H](CCCCN)NC(=O)[C@H](CO)NC(=O)[C@H](Cc2ccc(O)cc2)NC(=O)[C@H](CC(=O)O)NC(=O)[C@H](CO)NC(=O)[C@@H](NC(=O)[C@H](Cc2ccccc2)NC(=O)[C@@H](NC(=O)CNC(=O)[C@H](CCC(N)=O)NC(=O)C(C)(C)NC(=O)[C@@H](N)Cc2c[nH]cn2)[C@@H](C)O)[C@@H](C)O)C(=O)N[C@@H](CCC(N)=O)C(=O)N[C@@H](C)C(=O)N[C@@H](C)C(=O)N1)C(=O)N[C@@H](CCCCNC(=O)[C@H]1O[C@@H](OCCCCCCCCCCCCCCCCCC(=O)O)[C@H](O)[C@@H](O)[C@@H]1O)C(=O)N[C@@H](Cc1c[nH]c2ccccc12)C(=O)N[C@@H](CC(C)C)C(=O)N[C@@H](CC(C)C)C(=O)N[C@@H](CCC(N)=O)C(=O)N[C@H](C(N)=O)[C@@H](C)O [analogue 16],EC50,"human GLP-1R; 0.1% BSA in assay buffer, read-out: EC50 GLP-1R",1270 pM
same,EC50,GCGR; [2],86 pM
CCCCCCCCCCCCCCO[C@@H]1O[C@H](C(=O)N[C@@H](CCC(=O)NCCCC[C@H](NC(=O)[C@@H](NC(=O)[C@H](Cc2ccccc2)NC(=O)[C@H](CCC(=O)O)NC(=O)[C@@H]2CCCCNC(=O)CC[C@H](NC(=O)[C@H](CC(=O)O)NC(=O)[C@H](CC(C)C)NC(=O)[C@H](Cc3ccc(O)cc3)NC(=O)[C@H](CCCCN)NC(=O)[C@H](CO)NC(=O)[C@H](Cc3ccc(O)cc3)NC(=O)[C@H](CC(=O)O)NC(=O)[C@H](CO)NC(=O)[C@@H](NC(=O)[C@H](Cc3ccccc3)NC(=O)[C@@H](NC(=O)CNC(=O)[C@H](CCC(N)=O)NC(=O)C(C)(C)NC(=O)[C@@H](N)Cc3c[nH]cn3)[C@@H](C)O)[C@@H](C)O)C(=O)N[C@@H](CCC(N)=O)C(=O)N[C@@H](C)C(=O)N[C@@H](C)C(=O)N2)[C@@H](C)CC)C(=O)N[C@@H](Cc2c[nH]c3ccccc23)C(=O)N[C@@H](CC(C)C)C(=O)N[C@@H](CC(C)C)C(=O)N[C@@H](CCC(N)=O)C(=O)N[C@H](C(N)=O)[C@@H](C)O)C(=O)O)[C@@H](O)[C@H](O)[C@H]1O [analogue 14],Selectivity Ratio GLP-1R vs GCGR,human GLP-1R,2
same,EC50,human GLP-1R; [3],42.7 pM
same,GCGR activation potency (vs 4),GCGR,significantly weakened GCGR activation potency
CC[C@H](C)[C@H](NC(=O)[C@H](Cc1ccccc1)NC(=O)[C@H](CCC(=O)O)NC(=O)[C@@H]1CCCCNC(=O)CC[C@H](NC(=O)[C@H](CC(=O)O)NC(=O)[C@H](CC(C)C)NC(=O)[C@H](Cc2ccc(O)cc2)NC(=O)[C@H](CCCCN)NC(=O)[C@H](CO)NC(=O)[C@H](Cc2ccc(O)cc2)NC(=O)[C@H](CC(=O)O)NC(=O)[C@H](CO)NC(=O)[C@@H](NC(=O)[C@H](Cc2ccccc2)NC(=O)[C@@H](NC(=O)CNC(=O)[C@H](CCC(N)=O)NC(=O)C(C)(C)NC(=O)[C@@H](N)Cc2c[nH]cn2)[C@@H](C)O)[C@@H](C)O)C(=O)N[C@@H](CCC(N)=O)C(=O)N[C@@H](C)C(=O)N[C@@H](C)C(=O)N1)C(=O)N[C@@H](CCCCNC(=O)[C@H]1O[C@@H](OCCCCCCCCCCCCCCCCCC(=O)O)[C@H](O)[C@@H](O)[C@@H]1O)C(=O)N[C@@H](Cc1c[nH]c2ccccc12)C(=O)N[C@@H](CC(C)C)C(=O)N[C@@H](CC(C)C)C(=O)N[C@@H](CCC(N)=O)C(=O)N[C@H](C(N)=O)[C@@H](C)O [EU-A1872],EC50,"human GLP-1R; read-out: EC50 cAMP GLP-1 R (pM) 0.1% BSA, Table 5, 0.1% BSA",1270 pM
same,EC50,"human GLP-1R; read-out: EC50 cAMP GLP-1 R (pM) 0.1% BSA, Table 6, 0.1% BSA",1270 pM
same,EC50,"GCGR; read-out: EC50 cAMP glucagon R (pM) 0.1% Ovalb, Table 5, 0.1% ovalbumin",86 pM
CCCCCCCCCCCCCCCCCCO[C@@H]1O[C@H](C(=O)NCCCC[C@H](NC(=O)[C@@H](NC(=O)[C@H](Cc2ccccc2)NC(=O)[C@H](CCC(=O)O)NC(=O)[C@@H]2CCCCNC(=O)CC[C@H](NC(=O)[C@H](CC(=O)O)NC(=O)[C@H](CC(C)C)NC(=O)[C@H](Cc3ccc(O)cc3)NC(=O)[C@H](CCCCN)NC(=O)[C@H](CO)NC(=O)[C@H](Cc3ccc(O)cc3)NC(=O)[C@H](CC(=O)O)NC(=O)[C@H](CO)NC(=O)[C@@H](NC(=O)[C@H](Cc3ccccc3)NC(=O)[C@@H](NC(=O)CNC(=O)[C@H](CCC(N)=O)NC(=O)C(C)(C)NC(=O)[C@@H](N)Cc3c[nH]cn3)[C@@H](C)O)[C@@H](C)O)C(=O)N[C@@H](CCC(N)=O)C(=O)N[C@@H](C)C(=O)N[C@@H](C)C(=O)N2)[C@@H](C)CC)C(=O)N[C@@H](Cc2c[nH]c3ccccc23)C(=O)N[C@@H](CC(C)C)C(=O)N[C@@H](CC(C)C)C(=O)N[C@@H](CCC(N)=O)C(=O)N[C@H](C(N)=O)[C@@H](C)O)[C@@H](O)[C@H](O)[C@H]1O [analogue 6],Selectivity Ratio GLP-1R vs GCGR,human GLP-1R,17
same,Selectivity Ratio (SR=GCGR EC50/GLP-1 EC50),GCGR,17
same,EC50,"GCGR; text on Table 17, read-out: EC50 values for GCGR",884 pM
CC[C@H](C)[C@H](NC(=O)[C@H](Cc1ccccc1)NC(=O)[C@H](CCC(=O)O)NC(=O)[C@@H]1CCCCNC(=O)CC[C@H](NC(=O)[C@H](CC(=O)O)NC(=O)[C@H](CC(C)C)NC(=O)[C@H](Cc2ccc(O)cc2)NC(=O)[C@H](CCCCN)NC(=O)[C@H](CO)NC(=O)[C@H](Cc2ccc(O)cc2)NC(=O)[C@H](CC(=O)O)NC(=O)[C@H](CO)NC(=O)[C@@H](NC(=O)[C@H](Cc2ccccc2)NC(=O)[C@@H](NC(=O)CNC(=O)[C@H](CCC(N)=O)NC(=O)C(C)(C)NC(=O)[C@@H](N)Cc2c[nH]cn2)[C@@H](C)O)[C@@H](C)O)C(=O)N[C@@H](CCC(N)=O)C(=O)N[C@@H](C)C(=O)N[C@@H](C)C(=O)N1)C(=O)N[C@@H](CCCCNC(=O)[C@H]1O[C@@H](OCCCCCCCCCCCCCCCC(=O)O)[C@H](O)[C@@H](O)[C@@H]1O)C(=O)N[C@@H](Cc1c[nH]c2ccccc12)C(=O)N[C@@H](CC(C)C)C(=O)N[C@@H](CC(C)C)C(=O)N[C@@H](CCC(N)=O)C(=O)N[C@H](C(N)=O)[C@@H](C)O [analogue 15],EC50,"human GLP-1R; cAMP, CHO cells, 0.1% OVA containing buffers, read-out: pEC50 (SE) hu GLP-1 (converted)",38 pM
same,EC50,GCGR; [2],65 pM
CCCCCCCCCCCCCCO[C@@H]1O[C@H](C(=O)NCCCC[C@H](N)C(=O)NCCCC[C@H](NC(=O)[C@@H](NC(=O)[C@H](Cc2ccccc2)NC(=O)[C@H](CCC(=O)O)NC(=O)[C@@H]2CCCCNC(=O)CC[C@H](NC(=O)[C@H](CC(=O)O)NC(=O)[C@H](CC(C)C)NC(=O)[C@H](Cc3ccc(O)cc3)NC(=O)[C@H](CCCCN)NC(=O)[C@H](CO)NC(=O)[C@H](Cc3ccc(O)cc3)NC(=O)[C@H](CC(=O)O)NC(=O)[C@H](CO)NC(=O)[C@@H](NC(=O)[C@H](Cc3ccccc3)NC(=O)[C@@H](NC(=O)CNC(=O)[C@H](CCC(N)=O)NC(=O)C(C)(C)NC(=O)[C@@H](N)Cc3c[nH]cn3)[C@@H](C)O)[C@@H](C)O)C(=O)N[C@@H](CCC(N)=O)C(=O)N[C@@H](C)C(=O)N[C@@H](C)C(=O)N2)[C@@H](C)CC)C(=O)N[C@@H](Cc2c[nH]c3ccccc23)C(=O)N[C@@H](CC(C)C)C(=O)N[C@@H](CC(C)C)C(=O)N[C@@H](CCC(N)=O)C(=O)N[C@H](C(N)=O)[C@@H](C)O)[C@@H](O)[C@H](O)[C@H]1O [analogue 13],Selectivity Ratio GLP-1R vs GCGR,human GLP-1R,5
same,EC50,human GLP-1R; [3],37.2 pM
same,Selectivity Ratio (SR=GCGR EC50/GLP-1 EC50),GCGR,5
CCCCCCCCCCCCO[C@@H]1O[C@H](C(=O)NCCCC[C@H](NC(=O)[C@@H](NC(=O)[C@H](Cc2ccccc2)NC(=O)[C@H](CCC(=O)O)NC(=O)[C@@H]2CCCCNC(=O)CC[C@H](NC(=O)[C@H](CC(=O)O)NC(=O)[C@H](CC(C)C)NC(=O)[C@H](Cc3ccc(O)cc3)NC(=O)[C@H](CCCCN)NC(=O)[C@H](CO)NC(=O)[C@H](Cc3ccc(O)cc3)NC(=O)[C@H](CC(=O)O)NC(=O)[C@H](CO)NC(=O)[C@@H](NC(=O)[C@H](Cc3ccccc3)NC(=O)[C@@H](NC(=O)CNC(=O)[C@H](CCC(N)=O)NC(=O)C(C)(C)NC(=O)[C@@H](N)Cc3c[nH]cn3)[C@@H](C)O)[C@@H](C)O)C(=O)N[C@@H](CCC(N)=O)C(=O)N[C@@H](C)C(=O)N[C@@H](C)C(=O)N2)[C@@H](C)CC)C(=O)N[C@@H](Cc2c[nH]c3ccccc23)C(=O)N[C@@H](CC(C)C)C(=O)N[C@@H](CC(C)C)C(=O)N[C@@H](CCC(N)=O)C(=O)N[C@H](C(N)=O)[C@@H](C)O)[C@@H](O)[C@H](O)[C@H]1O [analogue 3],EC50,GCGR; [1],28.8 pM
exendin-4 [reference compound],Fold Improvement GLP-1R,human GLP-1R,1
same,fold improvement on replacing BSA (0.1%) with OVA (0.1%),human GLP-1R,negligible
